This assay relates to SARS-CoV-2 clinical isolate Australia/VIC01/2020. The experiment in a line: Multidose treatment of SARS-CoV-2 infected Vero/hSLAM or CALU-3 cells, viral load by real-time PCR. Type of assay: cell-based. The note with it: drug replaced at 8, 24, 32 and 48 h, Vero/hSLAM or CALU-3, MOI 0.01. Here is the method: Vero/hSLAM cells (FIG. 4, panels A/C) or CALU-3 (FIG. 4, panels B/D) cells were infected with SARS-CoV-2 clinical isolate Australia/VIC01/2020 (MOI=0.01) for 2 h prior to addition of vehicle (DMSO), Ivermectin (A/B) or Moxidectin (C/D) at the concentrations indicated in FIG. 4. Supernatant was harvested at 8, 24, 32 and 48 h and replaced with fresh media containing the same concentration of drug or DMSO. Samples were quantitated for viral load using real-time PCR. Results represent mean±SD (n=6) relative to DMSO alone under the same conditions. Three parameter dose response curves were fitted using GraphPad prism. The data presented in FIG. 4 are single typical graphs from a series of two similar experiments.
On the technique in general: Quantitative PCR measures a nucleic acid by following its amplification.

As to ivermectin, the “effect of multidose treatment on SARS-CoV-2 anti-viral activity” value was “enhances SARS-CoV-2 anti-viral activity compared to single treatment”.

The values above are taken from patent US11364256B2, “Viral inhibition” (Monash University, priority 2020, dated 2022).
